Measurements as given in patent publication US10568320B2, “Biologically-based control methods for insect pests” (The United States of America, as represented by the …, priority 2017, dated 2020).

Experiments:
fire ant workers [1] = assay: Five biogenic amines fed to fire ant workers as droplets; format: in vivo, Solenopsis invicta; details: 1% (w/v) as HCl salts in 10% sucrose, 48 h, 60 workers
Method: Tyramine is one of five biogenic amines that may be found in insects (e.g., dopamine, histamine, octopamine, serotonin, and tyramine). The experiment in this example tests whether fire ant worker mortality effects observed with tyramine may be a general result of the ants ingesting greater than normal amounts of a biogenic amine. To test this hypothesis groups of 20 fire ant worker ants were starved for 24 hours and fed a 1% (w/v) biogenic amine in 10% sucrose solution. Treatments and sucrose were presented to the worker ants as a 25 microliter droplet on a 2 cm^2 piece of silicon treated filter paper. Each treatment and control were performed in triplicate for a total of 60 worker ants per treatment and control. Mortality was monitored for the first 7-8 h after introduction of the sucrose solutions, then at 24 h. The feeding/monitoring sequence was repeated for another 24 h period for a total of 48 h. The results are shown in FIG. 12A-12B in the form of Kaplan-Meier mortality curves.

fire ant workers [2] = assay: Example 14 feeding experiments: fire ant worker mortality
4th instar sexual larvae = assay: Direct (hand) feeding of 4th instar sexual larvae; format: in vivo, Solenopsis invicta; details: fed once, 80 nL max of about 1% w/v in 10% sucrose; N=10
Text: It was concluded that the 4th instar larvae are refractory to the mortality effects observed when workers are fed tyramine.

[3] = tested on: mature female alates (MFAs); assay: Injection into MFA abdomen: ovariole development and egg-laying; format: in vivo, Solenopsis invicta; details: 100 nL of a 1.0% saline solution (1 microgram) injected
Text: Two measures of ovariole development were used. […] Measurement of ovariole area in the same samples gave a quantitative measure of ovariole development. […] Within the context of a colony this effect would be in direct conflict with the colony queen. Eggs laid would not be fertile and therefore develop into males. Queen pheromone is also produced by […], which would act to reduce the fecundity of the colony queen. For example, in polygyne colonies the higher the number of queens the lower is the mean egg-laying rate/queen due to the presence of excess queen pheromone (see Vander Meer, R. K., et al. (1992), A comparison of queen oviposition rates from monogyne and polygyne fire ant, Solenopsis invicta, colonies.

fire ant workers [4] = assay: Droplet feeding of worker groups: mortality over 24 h and concentration series; format: in vivo; details: about 1% in 10% sucrose
Method: To determine how quickly the tyramine and acetyl tyramide act, 60 workers were allowed to feed on tyramine (FIG. 8A) or acetyl tyramide (FIG. 8B) dissolved at about 1% in 10% sucrose solution. The control and treatments were presented to the worker ants as droplets on phase separation filter paper. Consumption of the droplets was readily observed. Mortality was monitored for each of the first 10 hours and then at 24 hours. […] Tyramine and acetyl tyramide had >50% and >40% mortality, respectively within the 24 h time period of the experiment. […] This distribution is a cornerstone of pest ant baits. To test this hypothesis, a similar experiment was conducted. Workers were allowed to feed on the treatment and control solutions and were then transferred to another container with unfed nestmates. In all cases, it was observed that the treatment fed workers regurgitated the treatment and sucrose solutions to their unfed nestmates through the classic mechanism of trophallaxis (data not shown). Thus, normal worker behavior necessary for bait development was not affected by the treatments under these experimental conditions.
One criteria for an effective pest ant Active Ingredient (AI) is maintenance of activity over 1-3 orders of magnitude, because as the bait is distributed from one ant to another the material is diluted. The AI must maintain activity until all individuals in the colony (e.g., workers, brood and sexuals including the queen) have received the AI. […] Journal of Economic Entomology 99(5): 1739-1748). The 0.01% had >24 h delay in mortality.

[5] = tested on: mature female alates (MFAs); assay: Injection into MFA abdomen: wing loss (dealation); format: in vivo, Solenopsis invicta; details: 100 nL of a 1.0% saline solution injected into the MFA abdomen
Text: While the MFAs are in their mother colony, the queen releases primer pheromones that inhibit wing loss (sometimes referred to herein as “dealation”), development of ovaries, wing muscle histolysis, and pheromone production. This release prevents reproductive/resource competition between the MFAs and the mother queen. If MFAs are removed from the colony, they become disinhibited and eventually (e.g., within days) lose their wings and start the physiological processes (e.g., wing loss and ovariole development). MFA also become disinhibited when they leave the colony on a mating flight; however, in this case the now NMQs lose their wings within minutes of landing and initiate the above mentioned physiological/biochemical changes (e.g., wing loss and ovariole development). We know from previous experiments that mating is the trigger, not mating flight initiation or the act of flying (Burns, S. N., et al. (2002) Identification and action of juvenile hormone III from sexually mature alate females of the red imported fire ant, Solenopsis invicta. Journal of Insect Physiology 48: 357-365; Burns, S. N., et al. (2005), The effect of age and social environment on dealation in Solenopsis invicta (Hymenoptera: Formicidae) female […]. […] Burns, S. N., et al. […]

[6] = tested on: monogyne queenright colonies; assay: Feeding of monogyne queenright colonies: worker and queen mortality; format: in vivo, Solenopsis invicta; details: 1% in 10% sucrose, 27 d
Text: FIGS. 24A and 24B show results for the sucrose (10%) control and two treatments, tyramine (1%) and N-methyl-tyramine (1%), both dissolved in 10% sucrose. The control and test colonies were monogyne queenright colonies, containing a single queen, brood and workers started in the laboratory from newly mated queens collected in the field. The mean number of workers per colony was 8,400±400. […] Previous experiments used queenless sub-colonies, rather than the queenright colonies in these experiments. The mortality effect on colony queens was unexpected, since worker fire ants are completely sterile and cannot reproduce even if the queen dies. Therefore, when the reproductive queen dies no more brood is produced and the colony is no longer functional—it is considered dead. […] Therefore, 80% of the treated colonies were considered dead.

[7] = Solubility in aqueous solution; format: physicochemical; details: solution
female sexuals (alates) = assay: Worker attraction to poison sac extracts of dealates (queen pheromone bioassay); format: in vivo, Solenopsis invicta; details: extracts from dealates of fed sub-colonies

For NCCc1ccc(O)c(O)c1 [dopamine], the “worker mortality (Kaplan-Meier)” value (fire ant workers [1]) was “did not result in significant mortality”.
For COc1ccccc1CCN [2-methoxy-phenethylamine], the “fire ant worker mortality versus 10% sucrose control” value (fire ant workers [2]; 1.0% in 10% sucrose) was “No difference in mortality”.
In the case of NCCc1ccc(F)cc1 [4-flurophenethylamine], the “fire ant worker mortality versus 10% sucrose control” value (fire ant workers [2]; 1.0% in 10% sucrose) is reported as “Significant, but low, worker mortality”.
For acetyl tyramide, the “mortality / sickness of 4th instar sexual larvae” value (4th instar sexual larvae) was “none of the acetyl tyramide treatments died or appeared sick”, the “ovariole development, ovariole area, compared to controls” value [3] was “caused significant ovariole development” and the “ovariole development, ovary rank 1-4, compared to the control” value [3] was “significant ovariole development”. The “degradation of the tyramide” value (MFA mid- and hind-gut) was “No degradation of the tyramide was observed”, the “worker mortality compared with sucrose control (Kaplan-Meier, Log-rank)” value (fire ant workers [4]; 24 h) was “significantly greater worker mortality than the sucrose control” and the “worker mortality within the 24 h time period” value (fire ant workers [4]; droplets, 60 workers) was > 40%. The “dealation (wing loss) compared to the control” value [5] was “significantly faster and inappropriate dealation”.
In the case of CNCCc1ccc(O)cc1 [N-methyl-tyramine (free base), N-methyl-tyramine], the “fire ant worker mortality versus 10% sucrose control” value (fire ant workers [2]; 0.01% in 10% sucrose) is reported as “significantly different from the 10% sucrose control”, the “fire ant worker mortality versus 10% sucrose control” value (fire ant workers [2]; 0.1% in 10% sucrose) is reported as “significantly different from the 10% sucrose control” and the “fire ant worker mortality versus 10% sucrose control” value (fire ant workers [2]; 1.0% in 10% sucrose) is reported as “significantly different from the 10% sucrose control”. The “mortality at the two lower concentrations (0.1 and 0.01%) versus the 1.0% concentration” value (fire ant workers [2]; in 10% sucrose) was “significantly higher mortality than the 1.0% concentration”, the “% worker mortality at the end of the experiment versus control” value [6] was “significantly different from the corresponding controls” and the “fate of colony queens (five replicates)” value [6] was “all queen replicates (5) died”. The “queen mortality at the end of the experiment versus control” value [6] was “significantly different from the corresponding controls”, the colonies considered dead ([6]; five colonies) was 100% and the solubility maximum [7] was 1%. The “worker attraction to poison sac extracts compared among active treatments” value (female sexuals (alates)) was “significantly greater worker attraction than poison sac extracts from tyramine treatments” and the “worker attraction to poison sac extracts versus N,N-dimethyl tyramine treatment and controls” value (female sexuals (alates)) was “significantly different from those from the N,N-dimethyl tyramine treatment and the sucrose and hexane controls”.
In the case of COc1cccc(CCN)c1 [3-methoxy-phenethylamine], the “fire ant worker mortality versus 10% sucrose control” value (fire ant workers [2]; 1.0% in 10% sucrose) is reported as “No difference in mortality”.
For CN(C)CCc1ccc(O)cc1 [N,N-dimethyl-tyramine], the “fire ant worker mortality versus 10% sucrose control” value (fire ant workers [2]; 1.0% in 10% sucrose) was “no difference in mortality”.
For NCC(O)c1ccc(O)cc1 (stereo not drawn) [octopamine], the “worker mortality (Kaplan-Meier)” value (fire ant workers [1]) was “did not result in significant mortality”.
With NCCc1ccc(Cl)cc1 [4-chlorophenethylamine, 4-chloro-phenethylamine] the “fire ant worker mortality versus 10% sucrose control” value (fire ant workers [2]; 1.0% in 10% sucrose) was “Significant, but low, worker mortality”.
In the case of CNCCc1ccc(O)cc1.Cl [N-methyl-tyramine (HCl)], the “fire ant worker mortality versus 10% sucrose control” value (fire ant workers [2]; 0.01% in 10% sucrose) is reported as “significantly different from the sucrose control”, the “speed of worker mortality versus tyramine at the same concentration” value (fire ant workers [2]; 0.01%, p<0.01) is reported as “significantly faster than the 0.01% tyramine” and the “fire ant worker mortality versus 10% sucrose control” value (fire ant workers [2]; 0.1% in 10% sucrose) is reported as “significantly different from the sucrose control”. For the same molecule, the “speed of worker mortality versus tyramine at the same concentration” value (fire ant workers [2]; 0.1%, p=0.22) was “not significantly faster than the 0.1% tyramine”, the “fire ant worker mortality versus 10% sucrose control” value (fire ant workers [2]; 1.0% in 10% sucrose) was “significantly different from the sucrose control” and the “speed of worker mortality versus tyramine at the same concentration” value (fire ant workers [2]; 1.0%, p<0.001) was “significantly faster worker mortality than the 1.0% tyramine”. For the same molecule, the “speed of action compared to the N-methyl tyramine free-base” value (fire ant workers [2]; in vivo) was “appears to be quicker acting”.
In the case of NCCc1ccc(Br)cc1 [4-bromophenethylamine, 4-bromo-phenethylamine], the “fire ant worker mortality versus 10% sucrose control” value (fire ant workers [2]; 1.0% in 10% sucrose) is reported as “Significant, but low, worker mortality”.
In the case of COc1ccc(CCN)cc1Cl [3-chloro-4-methoxyphenethylamine], the “fire ant worker mortality versus 10% sucrose control” value (fire ant workers [2]; 0.1% in 10% sucrose) is reported as “significantly different from the 10% sucrose control”, the “fire ant worker mortality versus 10% sucrose control” value (fire ant workers [2]; 1.0% in 10% sucrose) is reported as “significantly different from the 10% sucrose control” and the mortality (fire ant workers [2]; 1.0 and 0.1% in 10% sucrose) is reported as “about 8%”.
For NCCc1c[nH]cn1 [histamine], the “worker mortality (Kaplan-Meier)” value (fire ant workers [1]) was “did not result in significant mortality”.
For COc1ccc(CCN)cc1 [4-methoxy-phenethylamine], the “fire ant worker mortality versus 10% sucrose control” value (fire ant workers [2]; 1.0% in 10% sucrose) was “No difference in mortality”.
In the case of CCCCCC(=O)NCCc1ccc(O)cc1 [hexanoyl tyramide], the “ovariole development, ovariole area, compared to controls” value [3] is reported as “not hexanoyl tyramide caused significant ovariole development”, the “ovariole development, ovary rank 1-4, compared to the control” value [3] is reported as “significant ovariole development” and the “degradation of the tyramide” value (MFA mid- and hind-gut) is reported as “No degradation of the tyramide was observed”.
For Cl.NCCc1ccc(O)cc1 [tyramine HCl], the “worker mortality (Kaplan-Meier)” value (fire ant workers [1]) was “statistically greater mortality than the control and the other 4 biogenic amines”, the “worker attraction to poison sac extracts compared among active treatments” value (female sexuals (alates)) was “not different from tyramine or N-methyl tyramine” and the “worker attraction to poison sac extracts versus N,N-dimethyl tyramine treatment and controls” value (female sexuals (alates)) was “significantly different from those from the N,N-dimethyl tyramine treatment and the sucrose and hexane controls”.
With NCCc1c[nH]c2ccc(O)cc12 [serotonin] the “worker mortality (Kaplan-Meier)” value (fire ant workers [1]) was “did not result in significant mortality”.
